{
  "source": "patent US20060147566A1",
  "about": "“Use of physiologically active fatty acids” (priority 2004, published 2006)",
  "origin": "cited, not measured here",
  "tested_on": "pruritus",
  "details": "known from clinical studies; acyl salicylate prior art",
  "data": [
    {"molecule": "CC(=O)Oc1ccccc1C(=O)O", "note": "[aspirin]", "values": [
      {"measurement": "significance for the treatment of pruritus", "value": "about 50%"}
    ]}
  ]
}
